Columns and labels:
B. subtilis 168 [1] = assay: fitness (endpoint OD595 vs no drug) (fraction); higher = more growth
Summary of the method: (§1)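 With the first reading as background, OD595 was measured every 30 min for 14 h in 384-well plates kept at 37 °C and inoculated at OD595 0.01. TSB, LB Lennox or CY was the medium. Fitness is the optical density at the transition into stationary phase divided by the robust mean of no-drug control wells, with a cap of 1.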

S. aureus DSM 20231 [2] = assay: as above
Summary of the method: as §1

S. aureus Newman [3] = assay: as above
Summary of the method: as §1

S. pneumoniae D39V [4] = assay: as above
Summary of the method: as §1

B. subtilis 168 [5] = assay: Bliss interaction score (quartile over a dose matrix) (fitness difference); higher = more antagonism (negative = synergy)
Summary of the method: (§2)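 Each plate was normalised to the robust mean of its own no-drug wells, using OD595 at entry into stationary phase, with values capped at 1. This normalised growth is the fitness value. The Bliss score is the difference between observed and product-expected fitness, with single-drug fitness inferred from the combination data and quartiles taken over technical, biological and donor/recipient replicates.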

S. aureus DSM 20231 [6] = assay: as above
Summary of the method: as §2

S. aureus Newman [7] = assay: as above
Summary of the method: as §2

S. pneumoniae D39V [8] = assay: as above
Summary of the method: as §2
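Throughout, for Bliss interaction score (quartile over a dose matrix): first quartile when negative (synergy) and third quartile when positive (antagonism).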

C[C@@H]1O[C@@H]1P(=O)(O)O [Fosfomycin] + Cc1ncc([N+](=O)[O-])n1CCO [Metronidazole]
fitness
Details | partner 0.625 µg/mL | partner 1.073 µg/mL | partner 1.25 µg/mL | partner 2.145 µg/mL | partner 2.5 µg/mL | partner 4.29 µg/mL | partner 5 µg/mL
B. subtilis 168 [1], first compound 1.562 µg/mL | 0.72 | – | 0.687 | – | 0.701 | – | –
B. subtilis 168 [1], first compound 3.124 µg/mL | 0.679 | – | 0.627 | – | 0.634 | – | –
B. subtilis 168 [1], first compound 6.248 µg/mL | 0.583 | – | 0.573 | – | 0.481 | – | –
S. aureus DSM 20231 [2], first compound 0.781 µg/mL | 0.785 | – | 0.783 | – | 0.852 | – | –
S. aureus DSM 20231 [2], first compound 1.562 µg/mL | 0.605 | – | 0.624 | – | 0.682 | – | –
S. aureus DSM 20231 [2], first compound 3.124 µg/mL | 0.497 | – | 0.493 | – | 0.493 | – | –
S. aureus Newman [3], first compound 0.781 µg/mL | 0.58 | – | 0.636 | – | 0.612 | – | –
S. aureus Newman [3], first compound 1.562 µg/mL | 0.502 | – | 0.511 | – | 0.453 | – | –
S. aureus Newman [3], first compound 3.124 µg/mL | 0.133 | – | 0.079 | – | 0.0859 | – | –
S. pneumoniae D39V [4], first compound 1.25 µg/mL | – | 0.957 | 0.975 | 0.94 | 0.992 | 0.95 | 1
S. pneumoniae D39V [4], first compound 2.5 µg/mL | – | 0.929 | 0.97 | 0.798 | 0.965 | 0.914 | 0.995
S. pneumoniae D39V [4], first compound 5 µg/mL | – | 0.87 | 0.857 | 0.893 | 0.886 | 0.864 | 0.847

fitness, S. aureus Newman [3], one replicate
Details | first compound 0.781 µg/mL | first compound 1.562 µg/mL | first compound 3.124 µg/mL
partner 0.781 µg/mL | 0.587 | 0.579 | 0.211
partner 1.562 µg/mL | 0.565 | 0.538 | 0.236
partner 3.124 µg/mL | 0.584 | 0.546 | 0.272

Details | Bliss interaction score
B. subtilis 168 [5] | 0.0663
S. aureus DSM 20231 [6] | -0.0362
S. aureus Newman [7] | -0.0452
S. pneumoniae D39V [8] | 0.0507

Cc1ncc([N+](=O)[O-])n1CCO [Metronidazole] + Cn1nnc(-c2ccc(-c3ccc(N4C[C@H](CO)OC4=O)cc3F)cn2)n1 [Tedizolid]
fitness
Details | partner 0.03125 µg/mL | partner 0.0625 µg/mL | partner 0.125 µg/mL | partner 0.25 µg/mL | partner 0.5 µg/mL
S. aureus DSM 20231 [2], first compound 0.625 µg/mL | – | 0.966 | 0.842 | – | –
S. aureus DSM 20231 [2], first compound 1.25 µg/mL | – | 0.91 | 0.839 | 0.552 | –
S. aureus DSM 20231 [2], first compound 2.5 µg/mL | – | 0.982 | 0.851 | – | –
S. aureus Newman [3], first compound 0.625 µg/mL | – | 0.985 | 0.875 | 0.521 | –
S. aureus Newman [3], first compound 0.781 µg/mL | – | 0.954 | 0.861 | – | –
S. aureus Newman [3], first compound 1.25 µg/mL | – | 0.948 | 0.89 | 0.509 | –
S. aureus Newman [3], first compound 1.562 µg/mL | – | 0.951 | 0.88 | – | –
S. aureus Newman [3], first compound 2.5 µg/mL | – | 0.93 | 0.874 | – | –
S. aureus Newman [3], first compound 3.124 µg/mL | – | 0.957 | 0.866 | – | –
S. pneumoniae D39V [4], first compound 1.073 µg/mL | – | – | 0.768 | 0.856 | –
S. pneumoniae D39V [4], first compound 1.25 µg/mL | 0.959 | 0.98 | 0.831 | – | –
S. pneumoniae D39V [4], first compound 2.145 µg/mL | – | – | 0.807 | 0.845 | 0.255
S. pneumoniae D39V [4], first compound 2.5 µg/mL | 0.974 | 0.998 | 0.85 | – | –
S. pneumoniae D39V [4], first compound 4.29 µg/mL | – | – | 0.814 | 0.838 | 0.259
S. pneumoniae D39V [4], first compound 5 µg/mL | 0.958 | 0.971 | 0.85 | – | –

Details | Bliss interaction score
B. subtilis 168 [5] | -0.0352
S. aureus DSM 20231 [6] | 0.0997
S. aureus Newman [7] | 0.105
S. pneumoniae D39V [8] | -0.0886

C[C@@H]1O[C@@H]1P(=O)(O)O [Fosfomycin] + CN[C@H](CC(C)C)C(=O)N[C@H]1C(=O)N[C@@H](CC(N)=O)C(=O)N[C@H]2C(=O)N[C@H]3C(=O)N[C@H](C(=O)N[C@H](C(=O)O)c4cc(O)cc(O)c4-c4cc3ccc4O)[C@H](O)c3ccc(c(Cl)c3)Oc3cc2cc(c3O[C@@H]2O[C@H](CO)[C@@H](O)[C@H](O)[C@H]2O[C@H]2C[C@](C)(N)[C@H](O)[C@H](C)O2)Oc2ccc(cc2Cl)[C@H]1O [Vancomycin]
Details | fitness
S. aureus DSM 20231 [2], first compound 0.781 µg/mL, partner 0.1875 µg/mL | 0.757
S. aureus DSM 20231 [2], first compound 0.781 µg/mL, partner 0.375 µg/mL | 0.751
S. aureus DSM 20231 [2], first compound 0.781 µg/mL, partner 0.75 µg/mL | 0.757
S. aureus DSM 20231 [2], first compound 1.562 µg/mL, partner 0.1875 µg/mL | 0.596
S. aureus DSM 20231 [2], first compound 1.562 µg/mL, partner 0.375 µg/mL | 0.638
S. aureus DSM 20231 [2], first compound 1.562 µg/mL, partner 0.75 µg/mL | 0.624
S. aureus DSM 20231 [2], first compound 3.124 µg/mL, partner 0.1875 µg/mL | 0.525
S. aureus DSM 20231 [2], first compound 3.124 µg/mL, partner 0.375 µg/mL | 0.546
S. aureus DSM 20231 [2], first compound 3.124 µg/mL, partner 0.75 µg/mL | 0.542
S. aureus Newman [3], first compound 0.781 µg/mL, partner 0.1875 µg/mL | 0.649
S. aureus Newman [3], first compound 0.781 µg/mL, partner 0.375 µg/mL | 0.628
S. aureus Newman [3], first compound 0.781 µg/mL, partner 0.75 µg/mL | 0.655
S. aureus Newman [3], first compound 1.562 µg/mL, partner 0.1875 µg/mL | 0.555
S. aureus Newman [3], first compound 1.562 µg/mL, partner 0.375 µg/mL | 0.563
S. aureus Newman [3], first compound 1.562 µg/mL, partner 0.75 µg/mL | 0.548
S. aureus Newman [3], first compound 3.124 µg/mL, partner 0.1875 µg/mL | 0.279
S. aureus Newman [3], first compound 3.124 µg/mL, partner 0.375 µg/mL | 0.255
S. aureus Newman [3], first compound 3.124 µg/mL, partner 0.75 µg/mL | 0.245
S. pneumoniae D39V [4], first compound 1.25 µg/mL, partner 0.03125 µg/mL | 0.97
S. pneumoniae D39V [4], first compound 1.25 µg/mL, partner 0.0625 µg/mL | 0.916
S. pneumoniae D39V [4], first compound 1.25 µg/mL, partner 0.125 µg/mL | 0.905
S. pneumoniae D39V [4], first compound 1.25 µg/mL, partner 0.5 µg/mL | 0.0887
S. pneumoniae D39V [4], first compound 2.5 µg/mL, partner 0.03125 µg/mL | 0.87
S. pneumoniae D39V [4], first compound 2.5 µg/mL, partner 0.0625 µg/mL | 0.869
S. pneumoniae D39V [4], first compound 2.5 µg/mL, partner 0.125 µg/mL | 0.888
S. pneumoniae D39V [4], first compound 2.5 µg/mL, partner 0.5 µg/mL | 0.0855
S. pneumoniae D39V [4], first compound 5 µg/mL, partner 0.03125 µg/mL | 0.719
S. pneumoniae D39V [4], first compound 5 µg/mL, partner 0.0625 µg/mL | 0.726
S. pneumoniae D39V [4], first compound 5 µg/mL, partner 0.25 µg/mL | 0.255
S. pneumoniae D39V [4], first compound 5 µg/mL, partner 0.5 µg/mL | 0.0851

Details | Bliss interaction score
B. subtilis 168 [5] | 0.029
S. aureus DSM 20231 [6] | 0.0454
S. aureus Newman [7] | 0.103
S. pneumoniae D39V [8] | -0.0646

Reference: the supplement of paper PMC10627819
